Measured values published in ChEMBL document CHEMBL1125035, “Synthesis and biological activity of novel vitamin D analogues: 24,24-difluoro-25-hydroxy-26,27-dimethylvitamin D3 and 24,24-difluoro-1 alpha,25-dihydroxy-26,27-dimethylvitamin D3” (1990).

Columns and labels:
Rattus norvegicus [1] = experiment: Ability to stimulate intestinal-calcium transport by the administration of compound in rats at a concentration of 50 pmol at 4 hr.; assay type: functional, Intestine
Rattus norvegicus [2] = experiment: Ability to mobilize Bone-Calcium transport, following the administration of compound in rats at a concentration of 5 pmol at 4 hr.; assay type: functional, organism-based
Rattus norvegicus [3] = experiment: Ability to stimulate intestinal-calcium transport by the administration of compound in rats at a concentration of 5000 pmol at 24 hr.; assay type: functional, Intestine
Rattus norvegicus [4] = experiment: Ability to mobilize Bone-Calcium transport, following the administration of compound in rats at a concentration of 5000 pmol at 4 hr.; assay type: functional, organism-based
Rattus norvegicus [5] = experiment: Ability to mobilize Bone-Calcium transport, following the administration of compound in rats at a concentration of 5000 pmol at 72 hr.; assay type: functional, organism-based
Rattus norvegicus [6] = experiment: Ability to mobilize Bone-Calcium transport, following the administration of compound in rats at a concentration of 500 pmol at 24 hr.; assay type: functional, organism-based
Rattus norvegicus [7] = experiment: Ability to mobilize Bone-Calcium transport, following the administration of compound in rats at a concentration of 500 pmol at 2 hr.; assay type: functional, organism-based
Rattus norvegicus [8] = experiment: Ability to mobilize Bone-Calcium transport, following the administration of compound in rats at a concentration of 500 pmol at 4 hr.; assay type: functional, organism-based
Rattus norvegicus [9] = experiment: Ability to mobilize Bone-Calcium transport, following the administration of compound in rats at a concentration of 50 pmol at 24 hr.; assay type: functional, organism-based
Rattus norvegicus [10] = experiment: Ability to mobilize Bone-Calcium transport, following the administration of compound in rats at a concentration of 50 pmol at 2 hr.; assay type: functional, organism-based
Rattus norvegicus [11] = experiment: Ability to mobilize Bone-Calcium transport, following the administration of compound in rats at a concentration of 50 pmol at 4 hr.; assay type: functional, organism-based
Rattus norvegicus [12] = experiment: Ability to mobilize Bone-Calcium transport, following the administration of compound in rats at a concentration of 50 pmol at 72 hr.; assay type: functional, organism-based
Rattus norvegicus [13] = experiment: Ability to mobilize Bone-Calcium transport, following the administration of compound in rats at a concentration of 5 pmol at 24 hr.; assay type: functional, organism-based
Rattus norvegicus [14] = experiment: Ability to mobilize Bone-Calcium transport, following the administration of compound in rats at a concentration of 5 pmol at 2 hr.; assay type: functional, organism-based
Rattus norvegicus [15] = experiment: Ability to mobilize Bone-Calcium transport, following the administration of compound in rats at a concentration of 5 pmol at 47 hr.; assay type: functional, organism-based
Rattus norvegicus [16] = experiment: Ability to stimulate intestinal-calcium transport by the administration of compound in rats at a concentration of 5 pmol at 13 hr.; assay type: functional, Intestine
Rattus norvegicus [17] = experiment: Ability to stimulate intestinal-calcium transport by the administration of compound in rats at a concentration of 5 pmol at 24 hr.; assay type: functional, Intestine
Rattus norvegicus [18] = experiment: Ability to stimulate intestinal-calcium transport by the administration of compound in rats at a concentration of 5 pmol at 2 hr.; assay type: functional, Intestine
Rattus norvegicus [19] = experiment: Ability to stimulate intestinal-calcium transport by the administration of compound in rats at a concentration of 5 pmol at 47 hr.; assay type: functional, Intestine
Rattus norvegicus [20] = experiment: Ability to stimulate intestinal-calcium transport by the administration of compound in rats at a concentration of 5 pmol at 4 hr.; assay type: functional, Intestine
Rattus norvegicus [21] = experiment: Ability to stimulate intestinal-calcium transport by the administration of compound in rats at a concentration of 50 pmol at 13 hr.; assay type: functional, Intestine
Rattus norvegicus [22] = experiment: Ability to stimulate intestinal-calcium transport by the administration of compound in rats at a concentration of 50 pmol at 24 hr.; assay type: functional, Intestine
Rattus norvegicus [23] = experiment: Ability to stimulate intestinal-calcium transport by the administration of compound in rats at a concentration of 5000 pmol at 2 hr.; assay type: functional, Intestine
Rattus norvegicus [24] = experiment: Ability to stimulate intestinal-calcium transport by the administration of compound in rats at a concentration of 5000 pmol at 4 hr.; assay type: functional, Intestine
Rattus norvegicus [25] = experiment: Ability to stimulate intestinal-calcium transport by the administration of compound in rats at a concentration of 500 pmol at 24 hr.; assay type: functional, Intestine
Rattus norvegicus [26] = experiment: Ability to stimulate intestinal-calcium transport by the administration of compound in rats at a concentration of 500 pmol at 2 hr.; assay type: functional, Intestine
Rattus norvegicus [27] = experiment: Ability to stimulate intestinal-calcium transport by the administration of compound in rats at a concentration of 500 pmol at 47 hr.; assay type: functional, Intestine
Rattus norvegicus [28] = experiment: Ability to stimulate intestinal-calcium transport by the administration of compound in rats at a concentration of 500 pmol at 4 hr.; assay type: functional, Intestine
Rattus norvegicus [29] = experiment: Ability to mobilize Bone-Calcium transport, following the administration of compound in rats at a concentration of 5000 pmol at 24 hr.; assay type: functional, organism-based
Rattus norvegicus [30] = experiment: Ability to mobilize Bone-Calcium transport, following the administration of compound in rats at a concentration of 5000 pmol at 2 hr.; assay type: functional, organism-based
Gallus gallus = species: Gallus gallus; experiment: Bind to chick intestinal Vitamin D3 receptor for 1,25-(OH)2-D3
[31] = molecular target: T1, Vitamin D-binding protein (Rattus norvegicus) (UniProt P04276); experiment: Displacement of [3H]25-(OH)-D3 from rat plasma Vitamin D binding protein; assay type: cell-free
T1 sequence (whole entry): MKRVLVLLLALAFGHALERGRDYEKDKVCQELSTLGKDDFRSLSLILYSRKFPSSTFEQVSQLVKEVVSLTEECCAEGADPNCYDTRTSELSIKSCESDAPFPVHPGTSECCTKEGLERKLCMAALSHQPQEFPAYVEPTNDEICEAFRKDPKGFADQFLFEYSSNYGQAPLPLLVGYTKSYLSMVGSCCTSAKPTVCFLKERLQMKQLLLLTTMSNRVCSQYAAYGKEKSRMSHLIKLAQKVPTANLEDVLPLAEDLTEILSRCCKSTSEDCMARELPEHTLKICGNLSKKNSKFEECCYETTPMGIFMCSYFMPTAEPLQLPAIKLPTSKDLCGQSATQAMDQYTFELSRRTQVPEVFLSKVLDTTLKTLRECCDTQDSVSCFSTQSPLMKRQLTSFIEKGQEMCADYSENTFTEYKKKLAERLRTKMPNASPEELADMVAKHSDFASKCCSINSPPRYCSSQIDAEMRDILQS

Rattus norvegicus [32] = experiment: Ability to stimulate intestinal-calcium transport by the administration of compound in rats at a concentration of 50 pmol at 2 hr.; assay type: functional, Intestine

| SMILES | Serosal/Mucosal Ca (Rattus norvegicus [1]) | Serum Ca2+ (Rattus norvegicus [2]) [mg/dL] | Serosal/Mucosal Ca (Rattus norvegicus [3]) | Serum Ca2+ (Rattus norvegicus [4]) [mg/dL] | Serum Ca2+ (Rattus norvegicus [5]) [mg/dL] | Serum Ca2+ (Rattus norvegicus [6]) [mg/dL] | Serum Ca2+ (Rattus norvegicus [7]) [mg/dL] | Serum Ca2+ (Rattus norvegicus [8]) [mg/dL] | Serum Ca2+ (Rattus norvegicus [9]) [mg/dL] | Serum Ca2+ (Rattus norvegicus [10]) [mg/dL] | Serum Ca2+ (Rattus norvegicus [11]) [mg/dL] | Serum Ca2+ (Rattus norvegicus [12]) [mg/dL] | Serum Ca2+ (Rattus norvegicus [13]) [mg/dL] | Serum Ca2+ (Rattus norvegicus [14]) [mg/dL] | Serum Ca2+ (Rattus norvegicus [15]) [mg/dL] | Serosal/Mucosal Ca (Rattus norvegicus [16]) | Serosal/Mucosal Ca (Rattus norvegicus [17]) | Serosal/Mucosal Ca (Rattus norvegicus [18]) | Serosal/Mucosal Ca (Rattus norvegicus [19]) | Serosal/Mucosal Ca (Rattus norvegicus [20]) | also measured |
| --- | --- | --- | --- | --- | --- | --- | --- | --- | --- | --- | --- | --- | --- | --- | --- | --- | --- | --- | --- | --- | --- |
| C=C1CC[C@H](O)C/C1=C/C=C1\CCC[C@]2(C)[C@@H]([C@H](C)CCCC(C)(C)O)CC[C@@H]12 [CALCIFEDIOL ANHYDROUS] | 2.17 | 4.14 | 7.19 | 4.12 | 6.5 | 5.5 | 4.66 | 4.22 | 5.06 | 4.48 | 4.1 | 4.52 | 4.34 | 4.32 | 4.66 | 2.22 | 2.84 | 2.03 | 3.41 | 2.42 | Serosal/Mucosal Ca (Rattus norvegicus [21]): 3.75; Serosal/Mucosal Ca (Rattus norvegicus [22]): 4.8; Serosal/Mucosal Ca (Rattus norvegicus [23]): 2.93; Serosal/Mucosal Ca (Rattus norvegicus [24]): 3.31; Serosal/Mucosal Ca (Rattus norvegicus [25]): 7.19; Serosal/Mucosal Ca (Rattus norvegicus [26]): 2.22; Serosal/Mucosal Ca (Rattus norvegicus [27]): 9.99; Serosal/Mucosal Ca (Rattus norvegicus [28]): 2.83; Serum Ca2+ (Rattus norvegicus [29]): 5.82 mg/dL; Serum Ca2+ (Rattus norvegicus [30]): 4.64 mg/dL; B50 (Gallus gallus): 282 nM; B50 [31]: 3.77 nM; Serosal/Mucosal Ca (Rattus norvegicus [32]): 1.75 |
| C=C1CC[C@H](O)C/C1=C/C=C1\CCC[C@]2(C)[C@@H]([C@H](C)CCC(F)(F)C(O)(CC)CC)CC[C@@H]12 | 1.97 | 4.38 | 8.65 | 4.56 | 5.84 | 5.1 | 4.22 | 4.4 | 4.72 | 4.28 | 4.18 | 4.64 | 4.9 | 4.4 | 4.34 | 2.3 | 2.34 | 1.89 | 2.59 | 1.61 | Serosal/Mucosal Ca (Rattus norvegicus [21]): 2.18; Serosal/Mucosal Ca (Rattus norvegicus [22]): 6.16; Serosal/Mucosal Ca (Rattus norvegicus [23]): 3.77; Serosal/Mucosal Ca (Rattus norvegicus [24]): 3.18; Serosal/Mucosal Ca (Rattus norvegicus [25]): 7.11; Serosal/Mucosal Ca (Rattus norvegicus [26]): 2.58; Serosal/Mucosal Ca (Rattus norvegicus [27]): 8.04; Serosal/Mucosal Ca (Rattus norvegicus [28]): 2.27; Serum Ca2+ (Rattus norvegicus [29]): 5.9 mg/dL; Serum Ca2+ (Rattus norvegicus [30]): 4.78 mg/dL; B50 (Gallus gallus): 52.8 nM; B50 [31]: 25.8 nM; Serosal/Mucosal Ca (Rattus norvegicus [32]): 1.8 |
